Patent publication US10821115B2, “Compounds that inhibit Mcl-1 protein” (priority 2017, dated 2020)
Read-outs that look alike come from different tables or passages of the source.

System: human multiple myeloma cell line, OPM-2
Assay: Cell viability assay (OPM-2 10 FBS), CellTiter-Glo
Assay type: cell-based
Protocol: Cell viability assay (OPM-2 10 FBS)
The human multiple myeloma cell line, OPM-2, was cultured in complete growth medium containing RPMI 1640 and 10% fetal bovine serum (FBS). Cells were seeded into 384-well plates at 3000 cells/well density in complete growth medium containing 10% FBS, and incubated for 16 h with serially diluted test compounds in a 37° C. incubator with 5% CO2. Cell viability was tested using CellTiter-Glo® assay (Promega, Madison, Wis.) according to the manufacturer recommendations. Luminescence was determined using an EnVision® Multilabel plate reader 25 min after the addition of detection reagent. IC50 values were then calculated with Xlfit using a logistical 4-parameter fit model in GraphPad Prism (GraphPad Software, San Diego, Calif.) or in Genedata Screener® (Genedata, Basel, Switzerland).

[1] = read-out: OPM-2 10% FBS IC50 IP, OPM-2 cells, 10% FBS, 16 h incubation
[2] = Homo sapiens, OPM-2, 16 h, read-out: OPM-2 10% FBS IC50 IP, OPM-2 cells, 10% FBS, 16 h incubation

SMILES | IC50 [1] [nM] | IC50 [2] [nM]
COCC[C@@H]1[C@@H](C)C/C=C/[C@](CN2CCN3CCOC[C@@H]3C2)(OC)[C@@H]2CC[C@H]2CN2C[C@@]3(CCCc4cc(Cl)ccc43)COc3ccc(nc32)C(=O)NS1(=O)=O [Example 20, (1 S,3′R,6′R,7′S,8′E,11′S, 12′R)-6-chloro-7′-((9aS)-hexahydropyrazino[2,1-c][1,4]oxazin-8(1H)-ylmethyl)-7′-methoxy-12′-(2-methoxyethyl)-11′-methyl-3,4-dihydro-2H,15′H-spiro[naphthalene-1,22′-[20]oxa[13]thia[1,14,25]triazatetracyclo[14.7.2.0-3,6˜.0˜19,24˜]pentacosa[8,16,18,24]tetraen]-15′-one 13′,13′-dioxide] | 22 | 
CC[C@@H]1CC/C=C/[C@@](CN2CCN3CCCC[C@@H]3C2)(OC)[C@@H]2CC[C@H]2CN2C[C@@]3(CCCc4cc(Cl)ccc43)COc3ccc(cc32)C(=O)N(C)S1(=O)=O [Example 33, (1 S,3′R,6′R,7′R,8′E,12′R)-6-chloro-12′-ethyl-7′-methoxy-14′-methyl-7′-((9aR)-octahydro-2H-pyrido[1,2-a]pyrazin-2-ylmethyl)-3,4-dihydro-2H,15′H-spiro[naphthalene-1,22′-[20]oxa[13]thia[1,14]diazatetracyclo[14.7.2.0-3,6˜.0˜19,24˜]pentacosa[8,16,18,24]tetraen]-15′-one 13′,13′-dioxide] |  | 5570
CO[C@@]1(CNCCN2CCOCC2)/C=C/C[C@H](C)[C@@H](C)S(=O)(=O)NC(=O)c2ccc3c(c2)N(C[C@@H]2CC[C@H]21)C[C@@]1(CCCc2cc(Cl)ccc21)CO3 [Example 34, (1 S,3′R,6′R,7′S,8′E,11′S,12′R)-6-chloro-7′-methoxy-11′,12′-dimethyl-7′-(((2-(4-morpholinyl)ethyl)amino)methyl)-3,4-dihydro-2H, 15′H-spiro[naphthalene-1,22′-[20]oxa[13]thia[1,14]diazatetracyclo[14.7.2.0˜3,6˜.0˜19,24˜]pentacosa[8,16,18,24]tetraen]-15′-one 13′,13′-dioxide] |  | 379
CO[C@]1(CNCCN2CCOCC2)/C=C/C[C@H](C)[C@@H](C)S(=O)(=O)NC(=O)c2ccc3c(c2)N(C[C@@H]2CC[C@H]21)C[C@@]1(CCCc2cc(Cl)ccc21)CO3 [Example 36, (1S,3′R,6′R,7′R,8′E,11′S,12′R)-6-chloro-7′-methoxy-11′,12′-dimethyl-7′-(((2-(4-morpholinyl)ethyl)amino)methyl)-3,4-dihydro-2H,15′H-spiro[naphthalene-1,22′-[20]oxa[13]thia[1,14]diazatetracyclo [14.7.2.0~3,6~.0~19,24~]pentacosa[8,16,18,24]tetraen]-15′-one 13′,13′-dioxide] |  | 518
CO[C@]1(CN2CCN3CCCC[C@H]3C2)/C=C/C[C@H](C)[C@@H](C)S(=O)(=O)NC(=O)c2ccc3c(c2)N(C[C@@H]2CC[C@H]21)C[C@@]1(CCCc2cc(Cl)ccc21)CO3 [Example 78, (1S,3′R,6′R,7′R,8′E,11′S,12′R)-6-chloro-7′-methoxy-11′,12′-dimethyl-7′-((9aS)-octahydro-2H-pyrido[1,2-a]pyrazin-2-ylmethyl)-3,4-dihydro-2H,15′H-spiro[naphthalene-1,22′-[20]oxa[13]thia[1,14]diazateracyclo [14.7.2.0~3,6~.0~19,24~]pentacosa[8,16,18,24]tetraen]-15′-one 13′,13′-dioxide] |  | 175
CO[C@@]1(CN2CCN3CCCC[C@H]3C2)/C=C/C[C@H](C)[C@@H](C)S(=O)(=O)NC(=O)c2ccc3c(c2)N(C[C@@H]2CC[C@H]21)C[C@@]1(CCCc2cc(Cl)ccc21)CO3 [Example 79, (1S,3′R,6′R,7′S,8′E,11′S,12′R)-6-chloro-7′-methoxy-11′,12′-dimethyl-7′-((9aS)-octahydro-2H-pyrido[1,2-a]pyrazin-2-ylmethyl)-3,4-dihydro-2H,15′H-spiro[naphthalene-1,22′-[20]oxa[13]thia[1,14]diazatetracyclo [14.7.2.0~3,6~.0~19,24~]pentacosa[8,16,18,24]tetraen]-15′-one 13′,13′-dioxide] |  | 245
CO[C@@]1(CN2CCN(CCS(C)(=O)=O)CC2)/C=C/C[C@H](C)[C@@H](C)S(=O)(=O)NC(=O)c2ccc3c(c2)N(C[C@@H]2CC[C@H]21)C[C@@]1(CCCc2cc(Cl)ccc21)CO3 [Example 81] |  | 112
CO[C@]1(CN2CCN(CC(F)(F)F)CC2)/C=C/C[C@H](C)[C@@H](C)S(=O)(=O)NC(=O)c2ccc3c(c2)N(C[C@@H]2CC[C@H]21)C[C@@]1(CCCc2cc(Cl)ccc21)CO3 [Example 93, (1S,3′R,6′R,7′R,8′E,11′S,12′R)-6-chloro-7′-methoxy-11′,12′-dimethyl-7′-((4-(2,2,2-trifluoroethyl)-1-piperazinyl)methyl)-3,4-dihydro-2H,15′H-spiro[naphthalene-1,22′-[20]oxa[13]thia[1,14]diazatetracyclo [14.7.2.0~3,6~.0~19,24~]pentacosa[8,16,18,24]tetraen]-15′-one 13′,13′-dioxide] |  | 924
C[C@@H]1[C@@H](C)C/C=C/[C@@](O)(CN2CCOC[C@@H]2Cn2ccnc2)[C@@H]2CC[C@H]2CN2C[C@@]3(CCCc4cc(Cl)ccc43)COc3ccc(cc32)C(=O)NS1(=O)=O [Example 100, (1 S,3′R,6′R,7′S,8′E,11′S, 12′R)-6-chloro-7′-hydroxy-7′-(((3S)-3-(1H-imidazol-1-ylmethyl)-4-morpholinyl)methyl)-11′,12′-dimethyl-3,4-dihydro-2H, 15′H-spiro[naphthalene-1,22′-[20]oxa[13]thia[1,14]diazatetracyclo[14.7.2.0-3,6˜.0˜19,24˜]pentacosa[8,16,18,24]tetraen]-15′-one 13′,13′-dioxide] |  | 1650
CCO[C@]1(CN2CCN(C(COC)COC)CC2)/C=C/C[C@H](C)[C@@H](C)S(=O)(=O)NC(=O)c2ccc3c(c2)N(C[C@@H]2CC[C@H]21)C[C@@]1(CCCc2cc(Cl)ccc21)CO3 [Example 116, (1S,3′R,6′R,7′R,8′E,11′S,12′R)-6-chloro-7′-ethoxy-7′-((4-(2-methoxy-1-(methoxymethyl)ethyl)-1-piperazinyl)methyl)-11′,12′-dimethyl-3,4-dihydro-2H,15′H-spiro[naphthalene-1,22′-[20]oxa[13]thia[1,14]diazatetracyclo [14.7.2.0~3,6~.0~19,24~]pentacosa[8,16,18,24]tetraen]-15′-one 13′,13′-dioxide] |  | 387
C[C@@H]1[C@@H](C)C/C=C/[C@@](O)(CNC(C)(C)C)[C@@H]2CC[C@H]2CN2C[C@@]3(CCCc4cc(Cl)ccc43)COc3ccc(cc32)C(=O)NS1(=O)=O [Example 125, (1S,3′R,6′R,7′S,8′E,11′S,12′R)-7′-((tert-butylamino)methyl)-6-chloro-7′-hydroxy-11′,12′-dimethyl-3,4-dihydro-2H,15′H-spiro[naphthalene-1,22′-[20]oxa[13]thia[1,14]diazatetracyclo[14.7.2.0-3,6˜.0˜19,24˜]pentacosa[8,16,18,24]tetraen]-15′-one 13′,13′-dioxide] |  | 1480
CC(C)N(CCO)C[C@]1(O)/C=C/C[C@H](C)[C@@H](C)S(=O)(=O)NC(=O)c2ccc3c(c2)N(C[C@@H]2CC[C@H]21)C[C@@]1(CCCc2cc(Cl)ccc21)CO3 [Example 126, (1 S,3′R,6′R,7′S,8′E,11′S,12′R)-6-chloro-7′-hydroxy-7′-(((2-hydroxyethyl)(1-methylethyl)amino)methyl)-11′,12′-dimethyl-3,4-dihydro-2H, 15′H-spiro[naphthalene-1,22′-[20]oxa[13]thia[1,14]diazatetracyclo[14.7.2.0-3,6˜.0˜19,24˜]pentacosa[8,16,18,24]tetraen]-15′-one 13′,13′-dioxide] |  | 900
C[C@@H]1[C@@H](C)C/C=C/[C@]2(CN(Cc3ccccc3)CCO2)[C@@H]2CC[C@H]2CN2C[C@@]3(CCCc4cc(Cl)ccc43)COc3ccc(cc32)C(=O)NS1(=O)=O [Example 138, (1 S,3′R,6′R,7′R,8′E, 11′S,12′R)-4″-benzyl-6-chloro-11′,12′-dimethyl-3,4-dihydro-2H,15′H-dispiro[naphthalene-1,22′-[20]oxa[13]thia[1,14]diazatetracyclo[14.7.2.0-3,6˜.0˜19,24˜]pentacosa[8,16,18,24]tetraene-7′,2″-[1,4]oxazinan]-15′-one 13′,13′-dioxide] |  | > 33300
CO[C@@]1(C(=O)N(C)C)/C=C/C[C@H](C)[C@@H](C)S(=O)(=O)NC(=O)c2ccc3c(c2)N(C[C@@H]2CC[C@H]21)C[C@@]1(CCCc2cc(Cl)ccc21)CO3 [Example 176, (1S,3′R,6′R,7′S,8′E,11′S,12′R)-6-chloro-7′-methoxy-N,N, 11′,12′-tetramethyl-15′-oxo-3,4-dihydro-2H-spiro[naphthalene-1,22′-[20]oxa[13]thia[1,14]diazatetracyclo[14.7.2.0-3,6˜.0˜19,24˜]pentacosa[8,16,18,24]tetraene]-7′-carboxamide 13′,13′-dioxide] | 149 | 
CO[C@]1(C(=O)N(C)C)/C=C/C[C@H](C)[C@@H](C)S(=O)(=O)NC(=O)c2ccc3c(c2)N(C[C@@H]2CC[C@H]21)C[C@@]1(CCCc2cc(Cl)ccc21)CO3 [Example 177, (1S,3′R,6′R,7′R,8′E,11′S,12′R)-6-chloro-7′-methoxy-N,N, 11′,12′-tetramethyl-15′-oxo-3,4-dihydro-2H-spiro[naphthalene-1,22′-[20]oxa[13]thia[1,14]diazatetracyclo[14.7.2.0-3,6˜.0˜19,24˜]pentacosa[8,16,18,24]tetraene]-7′-carboxamide 13′,13′-dioxide] | 615 | 
